SMILES | melting point [°C]
COC(=O)CCCc1cc2nc(C(F)(F)F)ccc2[nH]1 | 137
C#CC(C)(C)CCOc1ccc(Cl)cc1 | 42 to 45
CCCC(O)(Cn1nc[nH]c1=S)c1ccc(Cl)cc1Cl (configuration not stated) | 148
CNC(=O)n1nc(Oc2c(Cl)cc(C(F)(F)F)cc2Cl)cc1C | 113 to 114
Clc1cccc2c1Sc1ccccc1N2C1=CCCN1C1=NCCC1 | 195 to 197
CC12CCC3C(CC=C4CC(O)CCC43C)C1CC=C2Br (configuration not stated) | 162 to 164
CCC(=O)NCCCC(=O)O | 85 to 90
COC(=O)c1cncn1C1CC2CCCCC2c2ccccc21 (configuration not stated) | 140
Cc1ccc(Sc2c(Sc3ccc(C)cc3)c(Sc3ccc(C)cc3)c(C(O)=NCCO)c(C(=O)O)c2Sc2ccc(C)cc2)cc1 | 161 to 162
CC(=O)C=C(C)Nc1ccccc1C#N | 100
C1=C[C@H]2CCN(CC3CC3)C[C@@H]2Cc2ccccc21 (relative stereo) | 157 to 159
CCC(=O)Oc1ccc2c(c1)CCC1C2CCC2(C)C1CC(O)C2OC(=O)CC (configuration not stated) | 105
CN1CCC2(CC1)NC(=S)N(c1ccc(C#N)c(C(F)(F)F)c1)C2=N | > 264
Cc1nc(C(C)(O)c2ccsc2)sc1CCO (configuration not stated) | 127 to 129
Nc1ccnn1-c1c(F)c(F)c(C(F)(F)F)c(F)c1F | 103 to 104
CN(C)C(=O)CC(=O)c1ccc(C(=O)CC(=O)N(C)C)cc1 | 188 to 189
CC[C@H](C)Nc1cc(C(=O)OC)cc(NS(C)(=O)=O)n1 | 119 to 123
COC(C)CC(=O)NC1CCC(CCN2CCN(c3nccc4c3CCO4)CC2)CC1 (configuration not stated) | 167
CS(=O)(=O)Nc1ccc(N)cn1 | 199 to 202
COc1ccc(C(OCC2OC(n3cnc4c(=O)[nH]c(NC(=O)Cc5ccc(Cl)c(Cl)c5)nc43)CC2O)(c2ccccc2)c2ccc(OC)cc2)cc1 (configuration not stated) | 150 to 155
COc1ccc(C(=O)N2CC(O)CC2C(=O)O)cc1 (configuration not stated) | 192
CN(C)C1(c2ccccc2)CCC(CNC(=O)NCCCc2ccccc2)CC1 (configuration not stated) | 100 to 110
CS(=O)(=O)N1CCN(CCC(CS(=O)(=O)c2ccc(Oc3ccc(OC(F)(F)F)cc3)cc2)N(O)C=O)CC1 (configuration not stated) | 166 to 167
O=C(O)CN1C(=O)C(=Cc2ccc(C(=O)O)cc2)SC1=S | > 300

SMILES | melting point [°C]
CNC(=O)NS(=O)(=O)c1cccc2c1OS(=O)(=O)C(C)C2 (configuration not stated) | 235 to 238
C=CCSC1(C(F)(F)F)CN(C2CC2)C(=O)Nc2ccc(Cl)cc21 (configuration not stated) | 144 to 146
COC(=O)CNC(=O)c1ccc(C(=O)NS(=O)(=O)c2ccc(CCNC(=O)C(C)C)cc2)cn1 | 197 to 199
COc1nc(C(=O)NC(C)(C)C)c(C(=O)O)s1 | 120 to 122
CCCCC1OC(=O)c2cc(NC(=O)OCC)ccc21 (configuration not stated) | 125 to 126
Nc1nc2c(ncn2C2CC(O)C(CO)O2)c(=O)[nH]1 (configuration not stated) | > 300
CC(C)(C)OC(=O)N(C(=O)OC(C)(C)C)C(=O)c1cc2cc(Br)ccc2o1 | 138 to 139
CS(=O)(=O)N1CCC2(CC1)OCCO2 | 107 to 109
O=C(O)Cc1c[nH]c2cc(C(F)(F)F)nn2c1=O | 320 to 324
Cc1nc[nH]c1CSCCNC(=C[N+](=O)[O-])NCCSCc1nccs1 | 119 to 120
Clc1ccc(C(c2ccccc2)N2CCN(CCCn3cnc4ccccc43)CC2)cc1 (configuration not stated) | 106
COC(=O)c1cc(C(=O)c2c(C)c(NS(=O)(=O)c3cccc(OC)c3)c3ccccn23)ccc1NC(=O)C(F)(F)F | 220
C#Cc1cc2ncc(C#N)c(Nc3cc(OC)c(Cl)cc3Cl)c2s1 | 198 to 200
CN(CC(=O)C(Cc1ccccc1)NC(=O)c1ccccc1)C(=O)OC(Cc1ccccc1)C(=O)O (configuration not stated) | 52 to 60
CC(=O)Oc1c(C(C)(C)C)cc(C=[N+]([O-])CC(C)C)cc1C(C)(C)C | 177 to 180
CCOC(=O)Nc1ccn2cc(C)nc2c1Br | 137 to 138
CN(C(=S)Nc1nc(OCC(F)(F)F)cc(OCC(F)(F)F)n1)c1ccc(C(F)(F)F)cc1 | 109 to 111
CC(C)(C)P(c1cccc2ccccc12)C(C)(C)C | 95 to 97
CC(NC(Nc1cccnc1)=C(C#N)S(=O)(=O)c1ccc(Cl)cc1)C(C)(C)C (configuration not stated) | 172 to 174
Cc1ncc(CN2CC=C(/C=C/c3ccccc3)CC2)c(N)n1 | 199 to 203
CCCCC1OC(=O)COC1=O (configuration not stated) | 37 to 39
CC(=O)C1CCC2C3CCC4CC(C(C(=O)O)C(=O)O)CCC4(C)C3CCC12C (configuration not stated) | 214 to 215
NCc1ccc(N2CCN(c3ccncc3)CC2)cc1 | 168 to 170
CC1=CC2Cc3[nH]c(=O)ccc3C3(C1)NCCCC23 (configuration not stated) | 270 to 271

Continued, values first:

melting point [°C] | SMILES
270 to 272 | COc1ccc(CNC(=O)c2c[nH]c3ccc(N4CCCC4)nc3c2=O)cc1
160 to 161 | FC(F)(F)c1ccc(-n2ccc3cnccc32)c(Cl)c1
173 to 174 | CS(=O)(=O)c1ccc(-c2ccccc2-c2ccc(C(F)(F)F)cc2)cc1
> 250 | Nc1nc2ccc(S(=O)(=O)n3c(CCC(=O)O)cc4cc(C(F)(F)F)ccc43)cc2s1
173 | Cc1c(-c2ccc(NC(=O)NC(C)(C)C)cc2)nc2n1CCc1ccccc1C2OC1CCN(C)CC1 (configuration not stated)
125 to 127 | Cc1ccc(Cl)cc1NS(=O)(=O)c1cc(S(=O)(=O)Nc2cc(Cl)ccc2C)c2ccccc2c1
218 to 220 | CCC1c2ccccc2-c2cc(-c3cccc4c3oc3ccccc34)ccc2N1S(=O)(=O)c1ccc(O)cc1 (configuration not stated)
200 to 201 | COC(=O)Cc1ccc(-c2cc(O)c3ccccc3c2O)n1C
175 | Nc1nc(Cl)cc(Oc2ccc3c(c2)CCCCN3C(=O)Nc2cccc(C(F)(F)F)c2)n1
168 to 170 | O=[N+]([O-])c1cccc2c1nc(-c1c(F)cccc1F)n2Cc1c(F)cccc1F
215 | c1ccc2oc3cnnc-3cc2c1
198 to 200 | COC(=O)CN(C(=O)OC)C1CN(C(=O)Nc2ccc(C(F)(F)F)cc2)N=C1c1ccc(Cl)cc1 (configuration not stated)
196 to 200 | COc1ccc(CN2Cc3cc(N(C)C)ccc3N3CC(=O)N=C23)cc1
157 to 159 | Cc1ccc2c(c1)CC(=O)c1cc(C(C)C(=O)O)ccc1S2 (configuration not stated)
> 200 | O=C(O)c1ccc(S(=O)(=O)n2c(=O)[nH]c3cc(Cl)ccc3c2=O)cc1
153 to 155 | Nc1cccnc1Nc1cc(Cl)ccc1C(=O)c1ccccc1
134 to 135 | O=C(O)C(=O)c1ccc(OCc2ccccc2)c(Cl)c1
231 to 233 | CC1CC(=O)NN=C1c1ccc2c(c1)N(CC(=O)N1CCN(CCO)CC1)CS2=O (configuration not stated)
152 to 153 | Cn1nc(Oc2ccc([N+](=O)[O-])c([N+](=O)[O-])c2)c(Br)c1C(F)(F)F
177 to 178 | Cc1ccc(S(=O)(=O)Oc2ccc(C(=O)c3c(-c4ccccc4)cc4ccccn34)cc2)cc1
104 to 107 | CCOC(=O)C(=CNc1nonc1C)C(=O)c1cc(F)c(F)cc1F
> 250 | CN1C(=O)CC[C@]2(C)c3ccc(-c4ccc5c(c4)C(=O)C(=O)N5)cc3CC[C@@H]12
230 to 233 | O=C(Nc1ccc(Cl)c(Cl)c1)c1ccccc1SSc1ccccc1C(=O)Nc1ccc(Cl)c(Cl)c1
189 to 191 | Fc1ccc(-c2ccn(C3CCCNC3)c2-c2ccncc2)cc1 (configuration not stated)
173 to 174 | CN(C)C(=O)Nc1ccc(Oc2ccc(Cl)nn2)cc1

melting point [°C] | SMILES
140 to 142 | COc1cc(Br)cc2c(Cl)cc(C)nc12
264 to 265 | O=c1[nH]c(=Cc2ccc(OCc3ccccc3)cn2)c(=O)[nH]c1=Cc1ccc(Cl)c(Cl)c1
180 | CCCCC(=O)c1ccc(C(=O)Nc2ccc3cc(CN4CCCC4)cnc3c2C)cc1
71.3 | O=C(c1ccccc1)c1ccc([N+](=O)[O-])c(CO)c1
142 | Cc1nc(N2CCN(C(=O)c3ccco3)CC2)nnc1-c1ccccc1
166 to 167 | CC(=O)c1c(C)[nH]c(Cc2ccccc2)c1C
88 to 91 | Cc1ccc(Br)cc1-n1nc(-c2ccc(O)cc2O)c2ccc(O)cc21
168 to 170 | Cc1cc(-n2cnn(Cc3ccc(F)cc3)c2=O)sc1C(=O)NCc1cnn(C)c1
> 250 | Cc1cc(=O)[nH]nc1-c1ccc(-c2n[nH]c(=O)cc2C)cc1
207 to 210 | O=C(OCc1cc(-c2ccccc2)c(=O)n2c1-c1sccc1CN2)N1CCOCC1
202 to 204 | CCc1[nH]c(=S)n(Nc2cccc(C)c2)c1-c1ccccc1
188 to 189 | Cc1cc2c(cc1C(F)(F)F)N(C(=O)Nc1cnc(OCc3ccccn3)c(C)c1)CC2
232 to 233 | CC1(C)OC(=O)Nc2ccc(-c3ccc(F)cc3)cc21
192 | COc1cc(C)nc(NC(=O)NS(=O)(=O)c2ccc(N=[N+]=[N-])cc2)n1
201 to 202 | CCOC(=O)c1nnc2n1CC(=O)N(C)c1ccc(Cl)cc1-2
107 to 110 | CCOC(=O)C1=C(COCc2nc(C)cs2)NC(C)=C(C(=O)OC)C1c1ccccc1Cl (configuration not stated)
152 to 155 | O=S(=O)(Cl)Oc1cccc2cnccc12
105 to 106 | Cc1[nH]cnc1CSCCNc1ncc(Cc2ccccc2)cc1C#N
204 to 207 | O=[N+]([O-])c1ccccc1-c1ccc2c(c1)S(=O)(=O)NC(C1CCCCC1)N2 (configuration not stated)
245 to 247 | Cn1cc(S(C)=O)c(=O)c2ccc(Cl)cc21 (configuration not stated)
142 | O=C(Cc1cccc2ccccc12)Nc1cc([C@H]2C[C@@H](Oc3nc4ccccc4o3)C2)[nH]n1
184 | Cn1c(=O)cc(-c2cccc(Cl)c2)c2cc(C(=O)c3ccc(I)cc3)ccc21
135 to 138 | CC1(C)CC(=O)c2c(Nc3ccccc3)cn(-c3ccccn3)c2C1
193 to 195 | Cc1cc(Sc2ccc3nc(COc4ccc(CC5SC(=O)NC5=O)cc4)n(C)c3n2)cc(C)c1NC(=O)Nc1ccc(C(F)(F)F)cc1 (configuration not stated)
